*1 amine or outer side, *2 acyl side, *3 side chain or, on linkers, in order; H or OH if unused. Where a SMILES comes first, the peptide text is derived from it. Bridges are numbered along the chain shown (N, C = ends). [ ]: non-standard residue; d: D form. hPhe(3,5-F2-4-CF3) = N[C@@H](CCc1cc(F)c(C(F)(F)F)c(F)c1)C(=O)O; NPrPhe(4-CF3) = CCCN[C@@H](Cc1ccc(C(F)(F)F)cc1)C(=O)O; NMeGly(cPent) = CN[C@H](C(=O)O)C1CCCC1; X7 = C[C@@](N[*:1])(C(=O)[*:2])C1CC1; NMeD = CN[C@@H](CC(=O)O)C(=O)O; NMeL = CN[C@@H](CC(C)C)C(=O)O; αMeV = CC(C)[C@](C)(N)C(=O)O; Sar = CNCC(=O)O
Experiments:
[1] = biological target: GDP-bound NRAS wild-type protein (Homo sapiens, UniProt P01111); assay: Binding to NRAS by surface plasmon resonance (SPR), KD and KD ratio to KRAS; details: ratio of the KD value with respect to GDP-bound NRAS wild-type protein to the KD value with respect to KRAS
Procedure, shortened: (§1)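 Measured at 30°C: SPR with GDP-loaded, E. coli-expressed biotin-Avi RAS captured (~100–300 RU), ascending 75 s compound injections, HBS pH 7.4 with GDP, MgCl2, 4% DMSO. KD from 1:1 fit.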

HRAS wild-type protein = HRAS wild-type protein (Homo sapiens, UniProt P01112); assay: Binding to HRAS by surface plasmon resonance (SPR), KD and KD ratio to KRAS; details: ratio of the KD value with respect to HRAS wild-type protein to the KD value with respect to KRAS
Procedure, shortened: as §1

[2] = system: human lung cancer strain NCI-H441; format: cell-based
Procedure, shortened: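 Signal came from […] measured per well once the reagent was added. Beforehand, cells were cultured at 37°C and 5% carbon dioxide on a compound series serially diluted in dimethyl sulfoxide.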

Chain of GDP-bound NRAS wild-type protein (P01111 whole entry): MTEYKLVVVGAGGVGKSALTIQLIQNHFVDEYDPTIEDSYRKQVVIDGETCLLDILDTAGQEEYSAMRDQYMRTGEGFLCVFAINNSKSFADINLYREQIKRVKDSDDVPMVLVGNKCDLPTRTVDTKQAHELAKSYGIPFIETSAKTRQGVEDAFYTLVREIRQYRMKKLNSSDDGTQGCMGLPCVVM
Chain of HRAS wild-type protein (P01112 whole entry): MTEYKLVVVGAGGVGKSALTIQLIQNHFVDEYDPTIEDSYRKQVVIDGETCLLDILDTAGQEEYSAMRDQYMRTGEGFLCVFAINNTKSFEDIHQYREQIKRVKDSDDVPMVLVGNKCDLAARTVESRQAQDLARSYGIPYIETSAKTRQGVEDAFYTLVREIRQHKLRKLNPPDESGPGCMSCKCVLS

## CCO[C@@H]1C[C@H]2C(=O)NC3(CCC3)C(=O)N(C)[C@@H](C3CCCC3)C(=O)N(C)[C@H](C(=O)N3CCOCC3)CC(=O)N(C)[C@@H](COC)C(=O)N[C@@H]([C@@H](C)CC)C(=O)N(C)CC(=O)N(C)[C@H]3CCCCN(C3=O)[C@@H](Cc3ccc(C(F)(F)F)cc3)C(=O)N(C)CC(=O)N[C@@H](CCc3cc(F)c(C(F)(F)F)c(F)c3)C(=O)N2C1 [PP0719]
[1]
  NRAS /KRAS: C (A compound having a KD ratio of 0.1 or more and less than 3 is denoted as C)
HRAS wild-type protein
  HRAS /KRAS: B (a compound having 3 or more and less than 10 is denoted as B)
[2]
  IC50: 0.0085 µM

## CCO[C@@H]1C[C@H]2C(=O)NC3(CCC3)C(=O)N(C)[C@@H](C3CCCC3)C(=O)N(C)[C@H](C(=O)N3CCOCC3)CC(=O)N(C)[C@@H](CCOC)C(=O)N[C@@H]([C@@H](C)CC)C(=O)N(C)CC(=O)N(C)[C@H]3CCCCN(C3=O)[C@@H](Cc3ccc(C(F)(F)F)cc3)C(=O)N(C)CC(=O)N[C@@H](CCc3cc(F)c(C(F)(F)F)c(F)c3)C(=O)N2C1 [PP0720]
[1]
  NRAS /KRAS: C (A compound having a KD ratio of 0.1 or more and less than 3 is denoted as C)
HRAS wild-type protein
  HRAS /KRAS: B (a compound having 3 or more and less than 10 is denoted as B)
[2]
  IC50: 0.0137 µM

## CCO[C@@H]1C[C@H]2C(=O)NC3(CCC3)C(=O)N(C)[C@@H](C3CCCC3)C(=O)N(C)[C@H](C(=O)N3CCOCC3)CC(=O)N(C)C[C@@H](C)C(=O)N[C@@H]([C@@H](C)CC)C(=O)N(C)CC(=O)N(C)[C@H]3CCCCN(C3=O)[C@@H](Cc3ccc(C(F)(F)F)cc3)C(=O)N(C)CC(=O)N[C@@H](CCc3cc(F)c(C(F)(F)F)c(F)c3)C(=O)N2C1 [PP0721]
[1]
  NRAS /KRAS: B (a compound having 3 or more and less than 10 is denoted as B)
HRAS wild-type protein
  HRAS /KRAS: B (a compound having 3 or more and less than 10 is denoted as B)
[2]
  IC50: 4.7 µM

## CCO[C@@H]1C[C@H]2C(=O)NC3(CC(C)(C)C3)C(=O)N(C)[C@@H](C3CCCC3)C(=O)N(C)[C@H](C(=O)N(C)C)CC(=O)N(C)[C@@H](C)C(=O)N[C@@H]([C@@H](C)CC)C(=O)N(C)CC(=O)N(C)[C@H]3CCCCCN(C3=O)[C@@H](Cc3ccc(C(F)(F)F)cc3)C(=O)N(C)CC(=O)N[C@@H](CCc3cc(F)c(C(F)(F)F)c(F)c3)C(=O)N2C1 [PP0723]
[1]
  NRAS /KRAS: B (a compound having 3 or more and less than 10 is denoted as B)
HRAS wild-type protein
  HRAS /KRAS: B (a compound having 3 or more and less than 10 is denoted as B)
[2]
  IC50: 0.0108 µM

## CCO[C@@H]1C[C@H]2C(=O)NC3(CCC(F)(F)CC3)C(=O)N(C)[C@@H](C3CCCC3)C(=O)N(C)[C@H](C(=O)N(C)C)CC(=O)N(C)[C@@H](C)C(=O)N[C@@H]([C@@H](C)CC)C(=O)N(C)CC(=O)N(C)[C@H]3CCCCCN(C3=O)[C@@H](Cc3ccc(C(F)(F)F)cc3)C(=O)N(C)CC(=O)N[C@@H](CCc3cc(F)c(C(F)(F)F)c(F)c3)C(=O)N2C1 [PP0725]
[1]
  NRAS /KRAS: B (a compound having 3 or more and less than 10 is denoted as B)
HRAS wild-type protein
  HRAS /KRAS: B (a compound having 3 or more and less than 10 is denoted as B)
[2]
  IC50: 0.194 µM

## CCO[C@@H]1C[C@H]2C(=O)NC3(CC(C)(C)C3)C(=O)N(C)[C@@H](C3CCCC3)C(=O)N(C)[C@H](C(=O)N3CCOCC3)CC(=O)N(C)[C@@H](CC(C)C)C(=O)N[C@@H]([C@@H](C)CC)C(=O)N(C)CC(=O)N(C)[C@H]3CCCCCN(C3=O)[C@@H](Cc3ccc(C(F)(F)F)cc3)C(=O)N(C)CC(=O)N[C@@H](CCc3cc(F)c(C(F)(F)F)c(F)c3)C(=O)N2C1 [PP0726]
[1]
  NRAS /KRAS: B (a compound having 3 or more and less than 10 is denoted as B)
HRAS wild-type protein
  HRAS /KRAS: B (a compound having 3 or more and less than 10 is denoted as B)
[2]
  IC50: 0.0327 µM

## CCO[C@@H]1C[C@H]2C(=O)NC3(CC=CC3)C(=O)N(C)[C@@H](C3CCCC3)C(=O)N(C)[C@H](C(=O)N3CCOCC3)CC(=O)N(C)[C@@H](CC(C)C)C(=O)N[C@@H]([C@@H](C)CC)C(=O)N(C)CC(=O)N(C)[C@H]3CCCCCN(C3=O)[C@@H](Cc3ccc(C(F)(F)F)cc3)C(=O)N(C)CC(=O)N[C@@H](CCc3cc(F)c(C(F)(F)F)c(F)c3)C(=O)N2C1 [PP0727]
[1]
  NRAS /KRAS: B (a compound having 3 or more and less than 10 is denoted as B)
HRAS wild-type protein
  HRAS /KRAS: B (a compound having 3 or more and less than 10 is denoted as B)
[2]
  IC50: 0.0852 µM

## CCO[C@@H]1C[C@H]2C(=O)NC3(CCC(F)(F)CC3)C(=O)N(C)[C@@H](C3CCCC3)C(=O)N(C)[C@H](C(=O)N3CCOCC3)CC(=O)N(C)[C@@H](CC(C)C)C(=O)N[C@@H]([C@@H](C)CC)C(=O)N(C)CC(=O)N(C)[C@H]3CCCCCN(C3=O)[C@@H](Cc3ccc(C(F)(F)F)cc3)C(=O)N(C)CC(=O)N[C@@H](CCc3cc(F)c(C(F)(F)F)c(F)c3)C(=O)N2C1 [PP0728]
[1]
  NRAS /KRAS: B (a compound having 3 or more and less than 10 is denoted as B)
HRAS wild-type protein
  HRAS /KRAS: B (a compound having 3 or more and less than 10 is denoted as B)
[2]
  IC50: 0.252 µM

## CCO[C@@H]1C[C@H]2C(=O)NC3(CCC3)C(=O)N(C)[C@@H](C3CCCC3)C(=O)N(C)[C@H](C(=O)N(C)C)CC(=O)N(C)[C@@H](C)C(=O)N[C@@H]([C@H](C)CC)C(=O)N(C)CC(=O)N(C)[C@H]3CCCCN(C3=O)[C@@H](Cc3ccc(C(F)(F)F)cc3)C(=O)N(C)CC(=O)N[C@@H](CCc3cc(F)c(C(F)(F)F)c(F)c3)C(=O)N2C1 [PP0730]
[1]
  NRAS /KRAS: C (A compound having a KD ratio of 0.1 or more and less than 3 is denoted as C)
HRAS wild-type protein
  HRAS /KRAS: C (A compound having a KD ratio of 0.1 or more and less than 3 is denoted as C)
[2]
  IC50: 0.0296 µM

## CC[C@H](C)[C@@H]1NC(=O)[C@H](CC)N(C)C(=O)C[C@@H](C(=O)N(C)C)N(C)C(=O)[C@H](C2CCCC2)N(C)C(=O)C2(CCC2)NC(=O)[C@@H]2C[C@H](N3CCC(F)(F)CC3)CN2C(=O)[C@H](CCc2cc(F)c(C(F)(F)F)c(F)c2)NC(=O)CN(C)C(=O)[C@H](Cc2ccc(C(F)(F)F)cc2)N2CCCCC[C@@H](C2=O)N(C)C(=O)CN(C)C1=O [PP0731]
[1]
  NRAS /KRAS: B (a compound having 3 or more and less than 10 is denoted as B)
HRAS wild-type protein
  HRAS /KRAS: B (a compound having 3 or more and less than 10 is denoted as B)
[2]
  IC50: 0.11 µM

## CC[C@H](C)[C@@H]1NC(=O)[C@H](CC)N(C)C(=O)C[C@@H](C(=O)N(C)C)N(C)C(=O)[C@H](C2CCCC2)N(C)C(=O)C2(CCC2)NC(=O)[C@@H]2C[C@H](N3CCC(F)(F)CC3)CN2C(=O)[C@H](CCc2cc(F)c(C(F)(F)F)c(F)c2)NC(=O)CN(C)C(=O)[C@H](Cc2ccc(C(F)(F)F)cc2)N2CCCC[C@@H](C2=O)N(C)C(=O)CN(C)C1=O [PP0732]
[1]
  NRAS /KRAS: C (A compound having a KD ratio of 0.1 or more and less than 3 is denoted as C)
HRAS wild-type protein
  HRAS /KRAS: B (a compound having 3 or more and less than 10 is denoted as B)
[2]
  IC50: 0.0396 µM

## CC[C@H](C)[C@@H]1NC(=O)[C@H](CC)N(C)C(=O)C[C@@H](C(=O)N(C)C)N(CC)C(=O)[C@H](C2CCCC2)N(C)C(=O)C2(CCC2)NC(=O)[C@@H]2C[C@@H](N3CCC(F)(F)CC3)CN2C(=O)[C@H](CCc2cc(F)c(C(F)(F)F)c(F)c2)NC(=O)CN(C)C(=O)[C@H](Cc2ccc(C(F)(F)F)cc2)N2CCCC[C@@H](C2=O)N(C)C(=O)CN(C)C1=O [PP0733]
[1]
  NRAS /KRAS: B (a compound having 3 or more and less than 10 is denoted as B)
HRAS wild-type protein
  HRAS /KRAS: B (a compound having 3 or more and less than 10 is denoted as B)
[2]
  IC50: 0.22 µM

## CCCN1C(=O)CN(C)C(=O)CN(C)C(=O)[C@H]([C@@H](C)CC)NC(=O)[C@H](CC(C)C)N(C)C(=O)C[C@@H](C(=O)N(C)C)N(C)C(=O)[C@H](C2CCCC2)N(C)C(=O)[C@](C)(C2CC2)NC(=O)[C@@H]2CCCN2C(=O)[C@H](CCc2cc(F)c(C(F)(F)F)c(F)c2)NC(=O)CN(C)C(=O)[C@@H]1Cc1ccc(C(F)(F)F)cc1 [PP0734] ([NMeL]I[Sar][Sar][NPrPhe(4-CF3)][Sar][hPhe(3,5-F2-4-CF3)]P[X7][NMeGly(cPent)][NMeD]-NMe2; lactam N-11)
[1]
  NRAS /KRAS: B (a compound having 3 or more and less than 10 is denoted as B)
HRAS wild-type protein
  HRAS /KRAS: C (A compound having a KD ratio of 0.1 or more and less than 3 is denoted as C)
[2]
  IC50: 0.0288 µM

## CCCN1C(=O)CN(C)C(=O)CN(C)C(=O)[C@H]([C@@H](C)CC)NC(=O)[C@H](CC(C)C)N(C)C(=O)C[C@@H](C(=O)N(C)C)N(C)C(=O)[C@H](C2CCCC2)N(C)C(=O)[C@](C)(C(C)C)NC(=O)[C@@H]2CCCN2C(=O)[C@H](CCc2cc(F)c(C(F)(F)F)c(F)c2)NC(=O)CN(C)C(=O)[C@@H]1Cc1ccc(C(F)(F)F)cc1 [PP0735] ([NMeL]I[Sar][Sar][NPrPhe(4-CF3)][Sar][hPhe(3,5-F2-4-CF3)]P[αMeV][NMeGly(cPent)][NMeD]-NMe2; lactam N-11)
[1]
  NRAS /KRAS: B (a compound having 3 or more and less than 10 is denoted as B)
HRAS wild-type protein
  HRAS /KRAS: C (A compound having a KD ratio of 0.1 or more and less than 3 is denoted as C)
[2]
  IC50: 0.0409 µM

From patent EP4603105A1, “PHARMACEUTICAL COMPOSITION CONTAINING CYCLIC COMPOUND HAVING SELECTIVE KRAS INHIBITORY EFFECT AGAINST HRAS AND NRAS” (CHUGAI SEIYAKU KABUSHIKI KAISHA, priority 2022, dated 2024)
